Data reported in ChEMBL document CHEMBL3352419, “Antiprotozoal activity of 8-acyl and 8-alkyl incomptine A analogs” (Bioorg Med Chem Lett, 2014).
Values after ≈ are worked out from the molar mass of the structure shown.

Assays:
[1] = tested on: Entamoeba histolytica; experiment: Antiprotozoal activity against Entamoeba histolytica HM-1:IMSS trophozoites assessed as growth inhibition compound treated for 48 hrs measured 48 hrs post wash-out by MTT assay; format: functional, organism-based
[2] = tested on: Giardia intestinalis; experiment: Antiprotozoal activity against Giardia lamblia IMSS: 8909:1 trophozoites assessed as growth inhibition compound treated for 48 hrs measured 48 hrs post wash-out by MTT assay; format: functional, organism-based; conditions: Giardia duodenalis, IMSS: 8909:1, 48 h

Row | Structure (SMILES) | IC50 [1] [µg/mL] | IC50 [2] [µg/mL]
1 | C=C1C(=O)O[C@H]2/C=C(C)\C=C/[C@H]3O[C@]3(C)C[C@@H](OC(C)=O)[C@@H]12 | 2.6 (≈ 8.54 µM) | 18.1 (≈ 59.5 µM)
2 | C=C1C(=O)O[C@H]2/C=C(C)\C=C/[C@H]3O[C@]3(C)C[C@@H](O)[C@@H]12 | 138 (≈ 525 µM) | 257 (≈ 979 µM)
3 | C=C1C(=O)O[C@H]2/C=C(C)\C=C/[C@H]3O[C@]3(C)C[C@@H](OC(=O)C(F)(F)F)[C@@H]12 | 37.7 (≈ 105 µM) | 43.3 (≈ 121 µM)
4 | C=C1C(=O)O[C@H]2/C=C(C)\C=C/[C@H]3O[C@]3(C)C[C@@H](OC(=O)CC)[C@@H]12 | 51.6 (≈ 162 µM) | 68.8 (≈ 216 µM)
5 | C=C1C(=O)O[C@H]2/C=C(C)\C=C/[C@H]3O[C@]3(C)C[C@@H](OC(=O)CCC)[C@@H]12 | 49.1 (≈ 148 µM) | 51.7 (≈ 156 µM)
6 | C=C1C(=O)O[C@H]2/C=C(C)\C=C/[C@H]3O[C@]3(C)C[C@@H](OC(=O)C(C)C)[C@@H]12 | 52.7 (≈ 159 µM) | 62.2 (≈ 187 µM)
7 | C=C1C(=O)O[C@H]2/C=C(C)\C=C/[C@H]3O[C@]3(C)C[C@@H](OC(=O)CCCC)[C@@H]12 | 51.7 (≈ 149 µM) | 58.3 (≈ 168 µM)
8 | C=C(C)C(=O)O[C@@H]1C[C@@]2(C)O[C@@H]2/C=C\C(C)=C/[C@@H]2OC(=O)C(=C)[C@@H]21 | 32.7 (≈ 99 µM) | 44.2 (≈ 134 µM)
9 | C=C1C(=O)O[C@H]2/C=C(C)\C=C/[C@H]3O[C@]3(C)C[C@@H](OC)[C@@H]12 | 29.4 (≈ 106 µM) | 35.2 (≈ 127 µM)
10 | C=C1C(=O)O[C@H]2/C=C(C)\C=C/[C@H]3O[C@]3(C)C[C@@H](OCC)[C@@H]12 | 31.9 (≈ 110 µM) | 43.8 (≈ 151 µM)
11 | C=C1C(=O)O[C@H]2/C=C(C)\C=C/[C@H]3O[C@]3(C)C[C@@H](OCCC)[C@@H]12 | 35.9 (≈ 118 µM) | 31.2 (≈ 103 µM)
12 | C=C1C(=O)O[C@H]2/C=C(C)\C=C/[C@H]3O[C@]3(C)C[C@@H](OC(C)C)[C@@H]12 | 28.7 (≈ 94.3 µM) | 32.7 (≈ 107 µM)
13 | C=C1C(=O)O[C@H]2/C=C(C)\C=C/[C@H]3O[C@]3(C)CC(=O)[C@@H]12 | 34.9 (≈ 134 µM) | 30.6 (≈ 118 µM)
